Here are results for 1 molecule from PMC9235293 (European Journal of Medicinal Chemistry, 2022).

On to `CC(C)[C@H](NC(=O)OCc1ccccc1)C(=O)N[C@@H](Cc1cccs1)C(=O)N[C@H](C=O)C[C@@H]1CCNC1=O` [MPI15], for which the “Solubility in DMSO” value was “insoluble”.
